Reference: patent US20070173488A1, “Pyrazolothiazole Protein Kinase Modulators” (SGX Pharmaceuticals, Inc., priority 2005, published 2007)

target: Met (Homo sapiens, UniProt P08581); assay: Met phosphorylation assay in GTL16 cells; format: cell-based; set-up: endogenous in cells; host or cells: GTL16 cells; conditions: compound 1 hour, anti-Phospho-Met (Tyr1234/1235), read-out: Met Phosp.
Method: GTL16 cells were maintained in DMEM Medium supplemented with 10% fetal bovine serum (FBS) 2 mM L-Glutamine and 100 units penicillin/100 μg streptomycin, at 37° C. in 5% CO2.
Compounds were tested in the following assays in duplicate.
Met phosphorylation assay: GTL16 cells were plated out at […] cells per 60×15 mm dish (Falcon) in 3 mL of assay media. The following day compound at various concentrations were added in assay media and incubated for 1 hour at 37° C. 5% CO2. After 1 hour the media was aspirated, and the cells were washed once with 1×PBS. The PBS was aspirated and the cells were harvested in 100 μL of modified RIPA lysis buffer (Tris.Cl pH 7.4, 1% NP-40, 5 mM EDTA, 5 mM NaPP, 5 mM NaF, 150 mM NaCl, Protease inhibitor cocktail (Sigma), 1 mM PMSF, 2 mM NaVO4) and transferred to a 1.7 mL eppendorf tube and incubated on ice for 15 minutes. After lysis, the tubes were centrifuged (10 minutes, 14,000 g, 4° C.). Lysates were then transferred to a fresh eppendorf tube. The samples were diluted 1:2 (250,000 cells/tube) with 2×SDS PAGE loading buffer and heated for 5 minutes at 98° C. The lysates were separated on a NuPage 4-12% Bis-Tris Gel 1.0 mm×12 well (Invitrogen), at 200V, 400 mA for approximately 40 minutes. The samples were then transferred to a 0.45 micron Nitrocellulose membrane Filter Paper Sandwich (Invitrogen) for 1 hour at 75V, 400 mA. After transferring, the membranes were placed in blocking buffer for 1 hour at room temperature with gentle rocking. The blocking buffer was removed and a 1:500 dilution of anti-Phospho-Met (Tyr1234/1235) antibody (Cell Signaling Technologies Cat. # 3126L) in 5% BSA, 0.05% Tween 20 in 1×PBS was added and the blots were incubated overnight at room temperature. The following day the blots were washed three times with 1×PBS, 0.1% Tween20. A 1:3000 dilution of HRP conjugated goat anti-rabbit antibody (Jackson ImmunoResearch Laboratories Cat. # 111-035-003) in blocking buffer, was added and incubated for 1 hr at room temperature with gentle rocking. The blot was wash 3 times in PBS, 0.1% Tween20 and visualized by chemiluminescence with SuperSignal West Pico Chemiluminescent Substrate (Pierce #34078).

Met, sequence (P08581 25-1390): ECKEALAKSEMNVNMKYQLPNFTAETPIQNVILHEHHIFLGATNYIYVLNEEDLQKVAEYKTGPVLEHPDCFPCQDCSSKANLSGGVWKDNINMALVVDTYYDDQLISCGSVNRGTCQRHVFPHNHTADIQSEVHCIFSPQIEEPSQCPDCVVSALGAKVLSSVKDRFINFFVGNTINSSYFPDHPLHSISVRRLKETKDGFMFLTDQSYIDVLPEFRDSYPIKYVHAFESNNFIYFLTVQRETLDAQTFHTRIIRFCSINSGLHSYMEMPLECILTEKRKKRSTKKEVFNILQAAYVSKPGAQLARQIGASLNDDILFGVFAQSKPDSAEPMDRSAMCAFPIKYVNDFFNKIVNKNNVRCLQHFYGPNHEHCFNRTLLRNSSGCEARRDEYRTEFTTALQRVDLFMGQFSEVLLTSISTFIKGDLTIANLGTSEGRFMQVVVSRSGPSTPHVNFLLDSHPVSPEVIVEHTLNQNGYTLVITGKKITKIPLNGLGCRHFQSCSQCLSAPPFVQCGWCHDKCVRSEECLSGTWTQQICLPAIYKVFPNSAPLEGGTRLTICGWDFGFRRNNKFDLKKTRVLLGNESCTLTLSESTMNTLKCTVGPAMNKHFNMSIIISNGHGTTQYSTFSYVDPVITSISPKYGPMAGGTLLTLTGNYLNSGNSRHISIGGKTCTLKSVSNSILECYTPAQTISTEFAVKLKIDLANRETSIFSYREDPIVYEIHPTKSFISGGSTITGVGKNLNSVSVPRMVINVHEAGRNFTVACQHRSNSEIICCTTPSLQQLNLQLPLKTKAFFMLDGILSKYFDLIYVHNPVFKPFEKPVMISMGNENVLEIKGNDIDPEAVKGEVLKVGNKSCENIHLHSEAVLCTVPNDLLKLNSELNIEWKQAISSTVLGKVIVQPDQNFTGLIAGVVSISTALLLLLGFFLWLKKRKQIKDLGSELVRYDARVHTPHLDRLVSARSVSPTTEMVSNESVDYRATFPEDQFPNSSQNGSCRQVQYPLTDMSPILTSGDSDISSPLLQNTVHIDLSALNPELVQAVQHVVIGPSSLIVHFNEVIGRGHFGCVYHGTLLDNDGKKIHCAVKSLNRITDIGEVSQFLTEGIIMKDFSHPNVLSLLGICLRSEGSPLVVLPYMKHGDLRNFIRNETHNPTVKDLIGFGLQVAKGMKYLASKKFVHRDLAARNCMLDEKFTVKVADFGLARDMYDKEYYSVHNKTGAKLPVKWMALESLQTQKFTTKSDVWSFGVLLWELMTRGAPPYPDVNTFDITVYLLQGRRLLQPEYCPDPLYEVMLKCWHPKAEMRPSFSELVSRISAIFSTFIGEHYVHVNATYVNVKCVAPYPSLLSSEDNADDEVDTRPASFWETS

| SMILES | IC50 |
| --- | --- |
| O=C(Nc1cc[nH]n1)Nc1nc2[nH]nc(-n3cncc3-c3ccccc3Cl)c2s1 [1-{3-[5-(2-Chloro-phenyl)-imidazol-1-yl]-1H-pyrazolo[3,4-d]thiazol-5-yl}-3-(1H-pyrazol-3-yl)-urea] | > 10 µM |
| O=C(Nc1nc2[nH]nc(-n3cncc3-c3cccc(F)c3F)c2s1)C1CC1 [Cyclopropanecarboxylic acid {3-[5-(2,3-difluoro-phenyl)-imidazol-1-yl]-1H-pyrazolo[3,4-d]thiazol-5-yl}-amide] | > 10 µM |
| O=C(Nc1nc2[nH]nc(-n3cncc3-c3c(Cl)cccc3Cl)c2s1)C1CC1 [Cyclopropanecarboxylic acid {3-[5-(2,6-dichloro-phenyl)-imidazol-1-yl]-1H-pyrazolo[3,4-d]thiazol-5-yl}-amide] | 1 to 10 µM |
| O=C(Nc1nc2[nH]nc(-n3cncc3-c3ccccc3Cl)c2s1)C1CC1 [Cyclopropanecarboxylic acid {3-[5-(2-chloro-phenyl)-imidazol-1-yl]-1H-pyrazolo[3,4-d]thiazol-5-yl}-amide] | 1 to 10 µM |
